Test results as given in patent publication US11225469B2, “Inhibitors of phosphoglycerate dehydrogenase (PHGDH) and uses thereof” (Whitehead Institute for Biomedical Research, priority 2015, dated 2022).

Key:
PHGDH [1] = molecular target: T1, PHGDH (Homo sapiens (Human), UniProt O43175); assay: PHGDH inhibition, coupled assay with PSAT1/PSPH and diaphorase/resazurin readout; assay type: biochemical; settings: Table E9; mixture with PSAT1, PSPH; diaphorase/resazurin reporter
[2] = system: MDA-MB-231 cells over-expressing PHGDH; assay: Intracellular serine in MDA-MB-231 cells expressing PHGDH, medium lacking serine and glycine (LC-MS); assay type: cell-based, human; settings: media lacking serine and glycine
Experimental: To examine target engagement of PHGDH inhibitors in cells, MDA-MB-231 cells that lack detectable expression of PHGDH and MDA-MB-231 cells that stably express full-length human PHGDH (MDA-MB-231-PHGDH) were treated with PHGDH inhibitors in RPMI lacking serine and glycine. A MDA-MB-231 cell line was constructed which expresses PHGDH for comparison against the MDA-MB-231 empty vector line. MDA-MB-231 breast cancer cells were infected with PHGDH-expressing retrovirus.
MDA-MB-231 cells are incapable of synthesizing serine, but the addition of PHGDH permits these cells to synthesize serine. […] Concentrations of serine were determined by comparison with signals of internal standards and calibration curves. PHGDH inhibition reduces steady-state levels of intracellular serine in MDA-MB-231 cells over-expressing PHGDH. Studies were also performed in MDA-MB-468 cells, which over-express PHGDH and are PHGDH-dependent.
Cells were evenly seeded at 400,000 cells per well of a 6-well plate and allowed to attach for 24 hours. Prior to all labeling experiments, cells were pretreated with 10 μM compound or an equivalent volume of DMSO in RPMI for 1 hour. For steady-state metabolite concentrations, cells were washed with PBS prior to pretreatment and treatment in RPMI lacking serine and glycine. For labeling experiments, U-^13C-glucose, U-^13C-serine, or U-^13C-glycine replaced the corresponding unlabeled RPMI component. Cells were washed in 4° C. […] Triplicate identically seeded wells were trypsinzed and analyzed with a Multisizer Coulter Counter (Beckman Coulter) to obtain cell counts and total cell volumes for normalization.
Dried metabolites were resuspended in 100 μL water, centrifuged at 13,000×g at 4° C. for 10 minutes, and the supernatant recovered for analysis. […] Metabolites were monitored using a polarity-switching full-scan method and identified by accurate mass (±20 ppm) and retention time within 15 seconds of a previously run pure standard. […]

ALDH = ALDH (Homo sapiens (Human), UniProt P00352); assay: Counter-screen against ALDH; assay type: biochemical; settings: Table E11
GAPDH = GAPDH (Homo sapiens (Human), UniProt P04406); assay: Counter-screen against GAPDH; assay type: biochemical; settings: Table E11
Experimental: GAPDH substrate buffer contained 210 mM Tris pH 7.4, 2.5 mM NaH2PO4 pH 7.4, 2 mM DL-Glyceraldehyde 3-phosphate, 1.75 mM MgCl2, 0.01 mM NAD+, 0.11 mM resazurin, 0.2 mg/mL BSA, and 0.01% Tween-20. GAPDH enzyme buffer contained 50 mM Tris pH 7.4, 100 mM NaCl, 0.02 mM TCEP, 0.01 mM EDTA, 0.1 mg/mL BSA, 0.42 mg/mL diaphorase, and 2.5 nM GAPDH. The GAPDH, GPD1, and GPD1L assays were run in 384-well plates using the same protocol and readout as the PHGDH assay. […] GPD1 enzyme buffer contained 50 mM Tris pH 7.4, 100 mM NaCl, 0.08 mM TCEP, 0.4 mg/mL BSA, 0.03 μM EDTA, and 0.8 nM GPD1. 70 μL of substrate buffer were mixed with 10 μL enzyme buffer. GPD1L substrate buffer contained 200 mM Tris pH 7.4, 0.05 mM sn-G3-P, 2 mM MgCl2, 0.04 mM NAD+, 0.11 mM resazurin, 0.1 mg/mL BSA, and 0.02% Tween-20. GPD1L enzyme buffer contained 50 mM Tris pH 7.4, 100 mM NaCl, 0.02 mM TCEP, 0.42 mg/mL diaphorase, 0.1 mg/mL BSA, 0.008 μM EDTA, and 16 nM GPD1L. 40 μL of substrate buffer were mixed with 40 μL of enzyme buffer.
The GAPDH and GPD1L assays were read using the same protocol as the PHGDH assay. The GPD1 assay was read using loss of NADH fluorescence (λex=340 nm and λem=460 nm).

PHGDH [3] = molecular target: T1, PHGDH; assay: Differential scanning fluorimetry; assay type: binding
Experimental: Destabilization has been previously observed in the specific binding of small molecules to their protein targets (see, e.g., Hamiaux, C. et al. “DAD2 is an α/β hydrolase likely to be involved in the perception of the plant branching hormone, strigolactone.” Curr Biol 22, 2032-2036 (2012)).
Differential scanning fluorimetry assays were carried out in 20 mM TEA pH 8, 100 mM NaCl, 1× SYPRO Orange (Sigma), 2 μM PHGDH in a volume of 10 μL. Unfolding was monitored using a LightCycler 480 II real-time PCR instrument (λex=465 nm and λem=580 nm) over a linear 20 to 85° C. gradient. Plots of the first derivative of fluorescence vs. temperature were generated in LightCycler software.

HSD17B4 = HSD17B4 (Homo sapiens (Human), UniProt P51659); assay: Counter-screen against HSD17B4; assay type: biochemical; settings: Table E11
[4] = system: panel of other dehydrogenases; assay: Panel of other dehydrogenases; assay type: biochemical
panel of 168 GPCRs = assay: Cross-reactivity in a panel of 168 GPCRs
MDA-MB-468 cells = assay: Metabolite profiling and 13C labeling in MDA-MB-468 cells (LC-MS); assay type: cell-based, human; settings: washout
Experimental: To track the effects of PHGDH inhibition on glycolysis and serine biosynthesis, MDA-MB-231 and MDA-MB-468 cells were fed universally labeled carbon-13 glucose and the intracellular ratio of labeled to unlabeled glucose was measured at the times indicated in FIG. 3E.
Cells were evenly seeded at 400,000 cells per well of a 6-well plate and allowed to attach for 24 hours. Prior to all labeling experiments, cells were pretreated with 10 μM compound or an equivalent volume of DMSO in RPMI for 1 hour. For steady-state metabolite concentrations, cells were washed with PBS prior to pretreatment and treatment in RPMI lacking serine and glycine. For labeling experiments, U-^13C-glucose, U-^13C-serine, or U-^13C-glycine replaced the corresponding unlabeled RPMI component. Cells were washed in 4° C. 0.9% (w/v) NaCl in LCMS-grade water and extracted in 1 mL/well of 80:20 (v/v) methanol:water with 0.01 ng/mL Val-d8 and Phe-d8 as internal extraction standards. The extraction solvent was dried under nitrogen gas and metabolite samples were stored at −80° C. until analysis. Triplicate identically seeded wells were trypsinzed and analyzed with a Multisizer Coulter Counter (Beckman Coulter) to obtain cell counts and total cell volumes for normalization.
Dried metabolites were resuspended in 100 μL water, centrifuged at 13,000×g at 4° C. for 10 minutes, and the supernatant recovered for analysis. Chromatographic separation was achieved by injecting 1 pi of sample on a SeQuant ZIC-pHILIC Polymeric column (2.1 3 150 mm […], EMD Millipore). Flow rate was set to 0.1 ml per minute, column compartment was set to 25° C., and autosampler sample tray was set to 4° C. Mobile Phase A consisted of 20 mM ammonium carbonate, 0.1% ammonium hydroxide. Mobile Phase B was 100% acetonitrile. The mobile phase gradient (% B) was as follows: 0 min 80%, 30 min 20%, 31 min 80%, 42 min 80%. All mobile phase was introduced into the ionization source set with the following parameters: sheath gas=40, auxiliary gas=15, sweep gas=5, spray voltage=−3.1 kV or +3.0 kV, capillary temperature=275° C., S-lens RF level=40, probe temperature=350° C. Metabolites were monitored using a polarity-switching full-scan method and identified by accurate mass (±20 ppm) and retention time within 15 seconds of a previously run pure standard. Metabolite peaks were identified and integrated with Xcalibur v.2.2 software (Thermo Fisher Scientific) and normalized to internal standard and to total cell volume, m/z ratios for stable isotopically labeled metabolites were obtained from IsoMETLIN (See, e.g., Cho, K. et al. “isoMETLIN: a database for isotope-based metabolomics.” Anal Chem 86, 9358-9361 (2014)) and corrected for natural abundance.

T1 sequence (O43175 whole entry): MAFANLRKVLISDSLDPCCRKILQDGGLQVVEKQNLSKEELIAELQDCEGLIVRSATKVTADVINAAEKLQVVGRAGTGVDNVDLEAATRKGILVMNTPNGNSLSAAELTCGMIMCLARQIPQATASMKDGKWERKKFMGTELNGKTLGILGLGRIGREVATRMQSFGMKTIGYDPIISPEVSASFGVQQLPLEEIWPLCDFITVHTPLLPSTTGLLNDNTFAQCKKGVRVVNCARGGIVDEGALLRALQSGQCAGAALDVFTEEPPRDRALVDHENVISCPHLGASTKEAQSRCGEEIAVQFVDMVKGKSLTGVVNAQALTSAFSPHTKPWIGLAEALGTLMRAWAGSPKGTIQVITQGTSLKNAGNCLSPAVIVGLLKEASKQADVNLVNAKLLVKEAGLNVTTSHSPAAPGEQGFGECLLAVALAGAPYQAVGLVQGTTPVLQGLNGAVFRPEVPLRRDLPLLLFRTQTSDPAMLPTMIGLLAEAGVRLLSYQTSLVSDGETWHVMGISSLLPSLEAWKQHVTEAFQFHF
Sequence of HSD17B4 (P51659 whole entry, species assumed): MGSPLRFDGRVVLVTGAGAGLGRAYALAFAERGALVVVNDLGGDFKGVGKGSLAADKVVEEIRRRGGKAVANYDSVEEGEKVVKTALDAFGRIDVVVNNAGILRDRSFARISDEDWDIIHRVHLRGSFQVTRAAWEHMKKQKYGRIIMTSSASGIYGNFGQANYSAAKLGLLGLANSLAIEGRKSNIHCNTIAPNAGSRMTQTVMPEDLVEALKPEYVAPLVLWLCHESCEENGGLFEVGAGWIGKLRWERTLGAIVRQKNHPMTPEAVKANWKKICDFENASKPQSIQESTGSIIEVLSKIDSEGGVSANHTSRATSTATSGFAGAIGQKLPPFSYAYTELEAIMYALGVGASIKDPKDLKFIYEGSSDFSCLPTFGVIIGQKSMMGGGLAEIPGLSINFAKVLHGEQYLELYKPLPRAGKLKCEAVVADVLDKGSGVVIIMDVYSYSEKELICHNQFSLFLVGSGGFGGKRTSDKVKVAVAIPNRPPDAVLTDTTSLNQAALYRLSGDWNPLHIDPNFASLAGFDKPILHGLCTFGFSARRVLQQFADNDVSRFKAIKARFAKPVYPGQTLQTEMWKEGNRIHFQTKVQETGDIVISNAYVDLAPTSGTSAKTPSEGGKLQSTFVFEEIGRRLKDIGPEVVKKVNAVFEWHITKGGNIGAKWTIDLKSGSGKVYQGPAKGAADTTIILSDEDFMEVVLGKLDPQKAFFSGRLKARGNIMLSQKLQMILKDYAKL
Sequence of ALDH (P00352 whole entry): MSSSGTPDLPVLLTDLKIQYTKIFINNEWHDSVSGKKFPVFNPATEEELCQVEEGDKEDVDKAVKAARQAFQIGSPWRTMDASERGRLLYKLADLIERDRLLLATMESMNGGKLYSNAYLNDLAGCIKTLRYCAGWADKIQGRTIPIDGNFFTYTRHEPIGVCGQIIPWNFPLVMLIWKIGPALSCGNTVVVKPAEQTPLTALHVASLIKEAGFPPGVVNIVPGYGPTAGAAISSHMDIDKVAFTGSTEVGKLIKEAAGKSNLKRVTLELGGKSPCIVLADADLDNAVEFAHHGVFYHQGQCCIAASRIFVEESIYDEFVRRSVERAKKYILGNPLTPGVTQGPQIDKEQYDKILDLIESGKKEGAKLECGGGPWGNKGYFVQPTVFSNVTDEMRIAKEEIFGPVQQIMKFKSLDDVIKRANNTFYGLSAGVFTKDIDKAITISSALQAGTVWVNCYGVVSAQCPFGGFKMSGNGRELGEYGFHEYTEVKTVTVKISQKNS
Sequence of GAPDH (P04406 whole entry): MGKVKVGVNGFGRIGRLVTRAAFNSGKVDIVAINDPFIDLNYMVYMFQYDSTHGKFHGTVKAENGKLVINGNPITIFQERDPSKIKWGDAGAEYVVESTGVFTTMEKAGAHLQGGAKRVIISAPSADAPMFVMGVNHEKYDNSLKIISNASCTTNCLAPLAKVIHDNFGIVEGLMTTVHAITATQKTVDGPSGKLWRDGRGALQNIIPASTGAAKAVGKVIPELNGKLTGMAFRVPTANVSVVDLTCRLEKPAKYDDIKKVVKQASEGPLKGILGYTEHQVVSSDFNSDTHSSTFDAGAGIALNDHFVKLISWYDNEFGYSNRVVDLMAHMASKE

Structure (SMILES) | IC50 (PHGDH [1]) | intracellular serine levels [2] | IC50 (ALDH) | IC50 (GAPDH) | Tm of PHGDH (PHGDH [3]) | IC50 (HSD17B4) | activity against a panel of other dehydrogenases [4] | cross-reactivity, modulation of activity (panel of 168 GPCRs) | reversibility of inhibition of serine synthesis in cells (MDA-MB-468 cells)
Cc1cc(C)nc(NC(=S)N2CCN(c3ccncc3)CC2)c1 [Compound 71, N-(4,6-dimethylpyridin-2-yl)-4-(pyridin-4-yl)piperazine-1-carbothioamide] | ≥ 20 µM | not reduced | – | – | – | – | – | – | –
Cc1cc(C)nc(NC(=S)N2CCN(c3ccc(C(F)(F)F)cn3)CC2)c1 [Compound 72, N-(4,6-dimethylpyridin-2-yl)-4-(5-(trifluoromethyl)pyridin-2-yl)piperazine-1-carbothioamide] | – | decreased | 10 to 50 µM | ≥ 100 µM | decreased | ≥ 100 µM | inactive | < 30% | reversible
